The numbers were not newly measured in patent US20050129764A1, “Osmotic device containing licofelone” (priority 2003, published 2005), which cites them from elsewhere.

The conditions of data set [1]: 200 mg dose administered twice daily.
For data set [2] the following is noted: single dose (800-3,200) mg, volunteers.
Data set [3] has as its system osteoarthritis of the knee. The settings on record: phase III.

Consider `CC1(C)Cc2c(-c3ccccc3)c(-c3ccc(Cl)cc3)c(CC(=O)O)n2C1` [licofelone], for which the “activity in animal experiments” value was “antiphlogistic, analgesic, antipyretic, antiasthmatic and antiaggregative activity”. In data set [1], the “elimination half-life (T1/2β)” value is 8.7 to 11.1 h, the “peak plasma licofelone concentrations” value was 1650 to 1750 ng/mL and the “time post-dose at which peak plasma concentrations were reached” value is 0.74 to 4 h. The tolerability entry in data set [2] was “generally well tolerated”. In addition, in data set [3] (licofelone 400 mg/day bid), the “improvement in efficacy parameters” value is “greatest improvement in efficacy parameters”. For the same molecule, the “efficacy in long-term treatment of osteoarthritis of the knee vs naproxen” value in data set [3] (n=704, licofelone 200 and 400 mg/day bid, naproxen 1000 mg/day bid) is “at least as effective as naproxen”. Also, the “gastrointestinal damage at active dosage” value (animal experiments) is “no gastrointestinal damage”.
